In patent publication US10479795B2 (Incyte Corporation, priority 2016, dated 2019) one finds IC50 data, which are given here for 21 molecules.

In experiment [1] the test system is Phosphorylated Ribosomal Protein S6 (RPS6). Description: THP-1 RPS6 ELISA Assay. It is filed as cell-based, Human. The settings on record: THP-1 cells, read-out: PI3Kγ_THP1_RPS6_ELISA IC50. The gist of the method:
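IC50 values come from a curve of percent inhibition against log compound concentration, using phospho-RPS6 ELISA (450 nm) on THP-1 lysates. Cells were serum-starved overnight, exposed to compound for 2 h at 37 °C, then challenged 15 min with 10 nM MCP-1.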
On the technique in general: ELISA stands for enzyme-linked immunosorbent assay.

For experiment [2], the target named is PI3Kγ (p110γ) Recombinant Human Protein (Homo sapiens (Human), UniProt P48736). Description: PI3K-γ Scintillation Proximity Assay. In kind it is biochemical. The following applies: read-out: PI3Kγ IC50. The gist of the method:
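Radiometric SPA readout: […] bound to WGA beads after overnight shaking, IC50 derived from % activity of DMSO control. Reaction used human p110γ, 2 μM ATP, 20 μM PIP2, pH 6.7 MOPS buffer with MgCl2, DTT, CHAPS, 2% DMSO, room temperature.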
In general terms: In a scintillation proximity assay essentially only radioactivity close to the scintillant gives light.

The target of experiment [3] is PI3Kδ (p110δ/p85α) Recombinant Human Protein (Homo sapiens (Human), UniProt O00329). Description: PI3Kδ Scintillation Proximity Assay. It is filed as biochemical. Put shortly:
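Radiometric read-out: 33P-labelled PIP3 product captured on WGA SPA beads and counted, with IC50 fitted from percent activity relative to DMSO control. Enzyme (3.4 nM) was incubated 120 min at room temperature with 20 μM PIP2 and 2 μM ATP at pH 6.7, 2% DMSO.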

Where a name gives a salt, the structure may show the parent alone. Read-outs that look alike come from different tables or passages of the source. Bounds are passed on as bounds.

Sequence of PI3Kδ (p110δ/p85α) Recombinant Human Protein (O00329 whole entry): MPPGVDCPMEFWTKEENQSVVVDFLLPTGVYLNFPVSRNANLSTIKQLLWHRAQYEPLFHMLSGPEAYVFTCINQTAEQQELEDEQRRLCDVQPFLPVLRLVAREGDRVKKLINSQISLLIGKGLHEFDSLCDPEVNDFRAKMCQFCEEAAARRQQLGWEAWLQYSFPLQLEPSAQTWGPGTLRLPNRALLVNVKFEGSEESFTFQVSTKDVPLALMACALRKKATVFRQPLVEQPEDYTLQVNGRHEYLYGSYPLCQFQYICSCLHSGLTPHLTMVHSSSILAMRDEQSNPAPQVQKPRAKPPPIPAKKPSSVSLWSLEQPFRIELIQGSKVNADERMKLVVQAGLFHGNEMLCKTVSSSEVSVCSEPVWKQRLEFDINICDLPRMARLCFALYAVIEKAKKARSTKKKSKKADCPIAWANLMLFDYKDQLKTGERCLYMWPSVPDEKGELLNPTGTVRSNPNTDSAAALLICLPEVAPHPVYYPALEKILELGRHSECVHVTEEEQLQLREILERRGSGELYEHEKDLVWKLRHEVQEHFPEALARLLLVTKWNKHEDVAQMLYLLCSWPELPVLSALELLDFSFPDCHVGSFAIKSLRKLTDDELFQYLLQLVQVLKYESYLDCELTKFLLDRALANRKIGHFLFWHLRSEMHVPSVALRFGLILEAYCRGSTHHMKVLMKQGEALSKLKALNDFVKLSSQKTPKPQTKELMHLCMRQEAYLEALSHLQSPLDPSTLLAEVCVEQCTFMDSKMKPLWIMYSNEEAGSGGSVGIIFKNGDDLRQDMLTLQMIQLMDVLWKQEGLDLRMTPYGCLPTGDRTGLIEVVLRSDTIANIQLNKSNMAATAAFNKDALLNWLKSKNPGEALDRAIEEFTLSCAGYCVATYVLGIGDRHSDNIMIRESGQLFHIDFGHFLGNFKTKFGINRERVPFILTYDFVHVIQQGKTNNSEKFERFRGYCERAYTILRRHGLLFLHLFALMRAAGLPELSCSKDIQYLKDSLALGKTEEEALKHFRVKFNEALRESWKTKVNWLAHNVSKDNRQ
Sequence of PI3Kδ (p110δ/p85α) Recombinant Human Protein (P27986 whole entry partner): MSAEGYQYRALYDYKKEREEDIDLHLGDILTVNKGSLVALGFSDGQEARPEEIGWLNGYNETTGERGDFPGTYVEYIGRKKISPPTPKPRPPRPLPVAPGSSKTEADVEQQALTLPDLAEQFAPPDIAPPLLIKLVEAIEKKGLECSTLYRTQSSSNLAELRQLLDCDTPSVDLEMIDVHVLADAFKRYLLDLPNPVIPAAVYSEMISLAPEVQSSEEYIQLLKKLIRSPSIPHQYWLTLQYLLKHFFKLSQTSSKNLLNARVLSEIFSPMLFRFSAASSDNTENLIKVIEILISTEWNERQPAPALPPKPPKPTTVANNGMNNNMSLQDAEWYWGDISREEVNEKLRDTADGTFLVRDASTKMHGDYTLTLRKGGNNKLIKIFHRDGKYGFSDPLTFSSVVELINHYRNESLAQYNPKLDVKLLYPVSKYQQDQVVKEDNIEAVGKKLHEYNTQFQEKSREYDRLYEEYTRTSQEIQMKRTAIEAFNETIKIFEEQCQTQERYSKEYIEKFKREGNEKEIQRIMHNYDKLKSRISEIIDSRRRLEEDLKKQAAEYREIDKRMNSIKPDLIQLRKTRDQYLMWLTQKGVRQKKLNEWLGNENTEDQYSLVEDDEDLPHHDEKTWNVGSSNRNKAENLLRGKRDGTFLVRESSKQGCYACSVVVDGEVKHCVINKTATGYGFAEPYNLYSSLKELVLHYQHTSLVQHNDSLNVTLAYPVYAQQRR
Sequence of PI3Kγ (p110γ) Recombinant Human Protein (P48736 whole entry): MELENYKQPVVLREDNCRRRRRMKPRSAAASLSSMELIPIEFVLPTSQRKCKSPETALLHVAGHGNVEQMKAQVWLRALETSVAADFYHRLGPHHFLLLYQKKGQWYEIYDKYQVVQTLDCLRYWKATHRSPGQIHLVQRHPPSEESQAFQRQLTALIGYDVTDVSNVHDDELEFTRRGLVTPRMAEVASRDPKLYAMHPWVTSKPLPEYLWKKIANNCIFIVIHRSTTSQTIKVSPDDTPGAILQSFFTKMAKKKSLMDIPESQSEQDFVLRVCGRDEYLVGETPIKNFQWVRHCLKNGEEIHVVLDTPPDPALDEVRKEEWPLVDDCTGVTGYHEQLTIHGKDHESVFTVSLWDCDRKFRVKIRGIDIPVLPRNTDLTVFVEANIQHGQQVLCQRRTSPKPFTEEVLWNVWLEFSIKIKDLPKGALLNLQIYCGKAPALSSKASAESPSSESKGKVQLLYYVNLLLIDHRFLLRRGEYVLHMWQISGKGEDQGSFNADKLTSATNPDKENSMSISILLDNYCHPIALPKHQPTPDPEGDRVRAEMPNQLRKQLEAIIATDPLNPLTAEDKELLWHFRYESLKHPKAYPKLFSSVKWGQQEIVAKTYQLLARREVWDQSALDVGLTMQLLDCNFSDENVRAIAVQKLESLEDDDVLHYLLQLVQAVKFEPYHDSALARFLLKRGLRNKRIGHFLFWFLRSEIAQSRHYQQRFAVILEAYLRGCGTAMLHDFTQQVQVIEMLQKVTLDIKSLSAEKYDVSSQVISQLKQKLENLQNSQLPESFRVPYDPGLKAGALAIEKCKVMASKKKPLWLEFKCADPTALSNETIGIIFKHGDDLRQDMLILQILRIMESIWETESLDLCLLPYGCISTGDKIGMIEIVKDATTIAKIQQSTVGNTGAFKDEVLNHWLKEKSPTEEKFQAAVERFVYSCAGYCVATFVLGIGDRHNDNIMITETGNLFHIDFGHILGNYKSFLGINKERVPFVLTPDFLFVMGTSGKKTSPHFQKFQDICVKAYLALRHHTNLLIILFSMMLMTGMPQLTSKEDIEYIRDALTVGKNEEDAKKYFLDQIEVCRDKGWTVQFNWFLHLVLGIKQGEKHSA

The term IC50 denotes the concentration that inhibits the measured activity by half. For the molecule `Cc1cc(F)c(S(=O)(=O)N[C@H]2CC[C@](C)(O)CC2)cc1-c1cnc2c(N)nc(C(F)(F)F)nn12` [Example 412, 5-(4-Amino-2-(trifluoromethyl)imidazo[1,2-f][1,2,4]triazin-7-yl)-2-fluoro-N-((1r,4r)-4-hydroxy-4-methylcyclohexyl)-4-methylbenzenesulfonamide trifluoroacetate salt], the results for the IC50 in experiment [1], in experiment [2] and in experiment [3] were under 100 nM, under 100 nM and 100 to 500 nM, respectively.

Regarding `[2H][C@]1(NS(=O)(=O)c2ccc(C)c(-c3cnc4c(N)ncnn34)c2)CC[C@](C)(O)CC1` [Example 508, 3-(4-Aminoimidazo[2,1-f][1,2,4]triazin-7-yl)-N-((1r,4r)-4-hydroxy-4-methylcyclohexyl-1-d)-4-methylbenzenesulfonamide trifluoroacetate], the IC50 in experiment [1] (Homo sapiens) was 500 to 1000 nM; in experiment [2], under 100 nM; in experiment [3] it was 100 to 500 nM.

On to `Cc1ccc(S(=O)(=O)N[C@H]2CC[C@](C)(O)CC2)cc1-c1cnc2c(N)nc(C(F)(F)F)nn12` [Example 327, 3-(4-Amino-2-(trifluoromethyl)imidazo[1,2-f][1,2,4]triazin-7-yl)-N-((1r,4r)-4-hydroxy-4-methylcyclohexyl)-4-methylbenzenesulfonamide trifluoroacetate salt], for which the IC50 was 100 to 500 nM in experiment [1], under 100 nM in experiment [2] and 100 to 500 nM in experiment [3].

For the molecule `Cc1ccc(S(=O)(=O)N2CCC[C@@H](N)C2)cc1-c1cnc2c(N)nc(C(F)(F)F)cn12` [Example 464, (R)-3-(5-((3-Aminopiperidin-1-yl)sulfonyl)-2-methylphenyl)-6-(trifluoromethyl)imidazo[1,2-a]pyrazin-8-amine tris(2,2,2-trifluoroacetate)], the IC50 in experiment [1] (Homo sapiens), in experiment [2] and in experiment [3] was under 100 nM each time.

As for `Cc1ccc(S(=O)(=O)NC23CC(C2)C3)cc1-c1cnc2c(N)ncnn12` [Example 106, 3-(4-Aminoimidazo[1,2-f][1,2,4]triazin-7-yl)-N-(bicyclo[1.1.1]pentan-1-yl)-4-methylbenzenesulfonamide trifluoroacetate salt], the IC50 in experiment [1] is over 1000 nM; in experiment [2] it was under 100 nM; in experiment [3], 500 to 2000 nM.

Consider `Cc1cn2c(-c3ccc(Cl)c(S(=O)(=O)N[C@H]4CC[C@](C)(O)CC4)c3)cnc2c(N)n1` [Example 385, 5-(8-amino-6-methylimidazo[1,2-a]pyrazin-3-yl)-2-chloro-N-((1r,4r)-4-hydroxy-4-methylcyclohexyl)benzenesulfonamide], for which the IC50 in experiment [1] was 100 to 500 nM; in experiment [2], under 100 nM; in experiment [3], under 100 nM.

As for `Cc1ccc(S(=O)(=O)NC23CC(CN4CCOCC4)(C2)C3)cc1-c1cnc2c(N)nc(C(F)(F)F)cn12` [Example 289, 3-(8-Amino-6-(trifluoromethyl)imidazo[1,2-a]pyrazin-3-yl)-4-methyl-N-(3-(morpholinomethyl)bicyclo[1.1.1]pentan-1-yl)benzenesulfonamide trifluoroacetate salt], the values for the IC50 in experiment [1] (Homo sapiens), in experiment [2] and in experiment [3] were 100 to 500 nM, under 100 nM and 100 to 500 nM, respectively.

Regarding `Cc1nc(N)c2ncc(-c3cc(S(=O)(=O)N[C@H]4CC[C@H](CC#N)OC4)c(Cl)cc3C)n2n1` [Example 389, 5-(4-amino-2-methylimidazo[2,1-f][1,2,4]triazin-7-yl)-2-chloro-N-((3S,6R)-6-(cyanomethyl)tetrahydro-2H-pyran-3-yl)-4-methylbenzenesulfonamide], the IC50 in experiment [1] (Homo sapiens), in experiment [2] and in experiment [3] was under 100 nM throughout.

`Cc1ccc(S(=O)(=O)N[C@H]2CC[C@H](C(C)(C)O)CC2)cc1-c1cnc2c(N)ncnn12` [Example 125, 3-(4-aminoimidazo[2,1-f][1,2,4]triazin-7-yl)-N-[trans-4-(1-hydroxy-1-methylethyl)cyclohexyl]-4-methylbenzenesulfonamide]: the IC50 is over 1000 nM in experiment [1] (Homo sapiens), under 100 nM in experiment [2] and 500 to 2000 nM in experiment [3].

`Cc1ccc(S(=O)(=O)N2CC3C(O)C2CN3C2CCCC2C#N)cc1-c1cnc2c(N)nc(C(F)(F)F)nn12` (stereo not drawn) [Example 353, 2-(5-((3-(4-amino-2-(trifluoromethyl)imidazo[2,1-f][1,2,4]triazin-7-yl)-4-methylphenyl)sulfonyl)-7-hydroxy-2,5-diazabicyclo[2.2.1]heptan-2-yl)cyclopentane-1-carbonitrile]: the IC50 in experiment [1] (Homo sapiens) is over 1000 nM; in experiment [2], under 100 nM; in experiment [3], 500 to 2000 nM.

As for “3-(4-Amino-2-(trifluoromethyl)imidazo[2,1- f][1,2,4]triazin-7-yl)-N-(3- (hydroxymethyl)bicyclo[2.1.1]pentan-1-yl)-4-(methyl- d3)benzenesulfonamide trifluoroacetate salt [Example 420]”, the IC50 in experiment [1] was 100 to 500 nM; in experiment [2], under 100 nM; in experiment [3], 100 to 500 nM.

With `Cc1cn2c(-c3cc(S(=O)(=O)N[C@H]4CC[C@H](O)CC4)ccc3C)cnc2c(N)n1` [Example 37, 3-(8-Amino-6-methylimidazo[1,2-a]pyrazin-3-yl)-N-(trans-4-hydroxycyclohexyl)-4-methylbenzenesulfonamide], the IC50 is 100 to 500 nM in experiment [1] (Homo sapiens), under 100 nM in experiment [2] and under 100 nM in experiment [3].

In the case of `Cc1ccc(S(=O)(=O)NC23CC(C(=O)N(C)C)(C2)C3)cc1-c1cnc2c(N)ncnn12` [Example 96, 3-(3-(4-Aminoimidazo[1,2-f][1,2,4]triazin-7-yl)-4-methylphenylsulfonamido)-N,N-dimethylbicyclo[1.1.1]pentane-1-carboxamide trifluoroacetate salt], the IC50 is over 1000 nM in experiment [1], under 100 nM in experiment [2] and 100 to 500 nM in experiment [3].

As to `Cc1ccc(S(=O)(=O)N2C[C@@H]3CCO[C@@H]3C2)cc1-c1cnc2c(N)ncnn12` (relative stereo) [Example 211, 7-(5-((cis-Hexahydro-5H-furo[2,3-c]pyrrol-5-yl)sulfonyl)-2-methylphenyl)imidazo[2,1-f][1,2,4]triazin-4-amine], the IC50 in experiment [1] (Homo sapiens) is 500 to 1000 nM; in experiment [2] it was under 100 nM; in experiment [3], 500 to 2000 nM.

As to `Cc1ccc(S(=O)(=O)NC23CC(F)(C2)C3)cc1-c1cnc2c(N)ncnn12` [Example 98, 3-(4-Aminoimidazo[1,2-f][1,2,4]triazin-7-yl)-N-(3-fluorobicyclo[1.1.1]pentan-1-yl)-4-methylbenzenesulfonamide trifluoroacetate salt], the IC50 in experiment [1] was 100 to 500 nM; in experiment [2], under 100 nM; in experiment [3], 500 to 2000 nM.

Take `CC(=O)N[C@H]1CC[C@H](NS(=O)(=O)c2ccc(C)c(-c3cnc4c(N)ncnn34)c2)CC1` [Example 74, N-[trans-4-({[3-(4-Aminoimidazo[2,1-f][1,2,4]triazin-7-yl)-4-methylphenyl]sulfonyl}amino)cyclohexyl]acetamide]: the IC50 in experiment [1] (Homo sapiens) is over 1000 nM; in experiment [2] it was under 100 nM; in experiment [3], 500 to 2000 nM.

`Cc1ccc(S(=O)(=O)NC23CCC(CO)(C2)C3)cc1-c1cnc2c(N)nc(C3CC3)nn12` [Example 259, 3-(4-Amino-2-cyclopropylimidazo[2,1-f][1,2,4]triazin-7-yl)-N-(4-(hydroxymethyl)bicyclo[2.1.1]hexan-1-yl)-4-methylbenzenesulfonamide trifluoroacetate salt]: the IC50 in experiment [1] (Homo sapiens) was under 100 nM; in experiment [2], under 100 nM; in experiment [3] it was 100 to 500 nM.

As to `Cc1ccc(S(=O)(=O)N[C@H]2CC[C@H](O)CC2)cc1-c1cnc2c(N)cc(-c3cncnc3)cn12` [Example 9, 3-(8-Amino-6-pyrimidin-5-ylimidazo[1,2-a]pyridin-3-yl)-N-(trans-4-hydroxycyclohexyl)-4-methylbenzenesulfonamide], the IC50 is over 1000 nM in experiment [1] (Homo sapiens), under 100 nM in experiment [2] and 500 to 2000 nM in experiment [3].

In the case of `Cc1ccc(S(=O)(=O)N(CCC#N)CCCO)cc1-c1cnc2c(N)ncnn12` [Example 175, 3-(4-aminoimidazo[2,1-f][1,2,4]triazin-7-yl)-N-(2-cyanoethyl)-N-(3-hydroxypropyl)-4-methylbenzenesulfonamide], the results for the IC50 in experiment [1] (Homo sapiens), in experiment [2] and in experiment [3] were 100 to 500 nM, under 100 nM and 100 to 500 nM, respectively.

For `Cc1ccc(S(=O)(=O)N[C@H]2CC[C@H](O)CC2)cc1-c1cnc2c(N)nc(-c3cccnc3)cn12` [Example 26, 3-(8-Amino-6-pyridin-3-ylimidazo[1,2-a]pyrazin-3-yl)-N-(trans-4-hydroxycyclohexyl)-4-methylbenzenesulfonamide], the IC50 in experiment [1] (Homo sapiens) is 100 to 500 nM; in experiment [2], under 100 nM; in experiment [3], under 100 nM.

Take `Cc1ccc(S(=O)(=O)NC2(C#N)CCC2)cc1-c1cnc2c(N)ncnn12` [Example 192, 3-(4-aminoimidazo[2,1-f][1,2,4]triazin-7-yl)-N-(1-cyanocyclobutyl)-4-methylbenzenesulfonamide trifluoroacetate]: the 50% inhibitory concentration (IC50) is 500 to 1000 nM in experiment [1] (Homo sapiens), under 100 nM in experiment [2] and 100 to 500 nM in experiment [3].
